Measurements reported in the NIST ThermoML archive (doi:10.1021/je200811n).

Settings: Hot wire method

F/C=C/C(F)(F)F [trans-1,3,3,3-tetrafluoropropene]
Settings	thermal conductivity [W/m/K]
241.66 K, 603 kPa, Liquid	0.09528
241.9 K, 10355 kPa, Liquid	0.09967
241.91 K, 15386 kPa, Liquid	0.1016
241.91 K, 20710 kPa, Liquid	0.1039
241.94 K, 5328 kPa, Liquid	0.0974
242 K, 586 kPa, Liquid	0.09528
242.02 K, 10375 kPa, Liquid	0.09936
242.03 K, 15367 kPa, Liquid	0.1014
242.03 K, 20714 kPa, Liquid	0.1037
242.06 K, 5339 kPa, Liquid	0.097
242.11 K, 624 kPa, Liquid	0.09501
242.35 K, 15378 kPa, Liquid	0.1015
242.36 K, 10375 kPa, Liquid	0.09945
242.36 K, 20709 kPa, Liquid	0.1035
242.41 K, 5308 kPa, Liquid	0.09704
242.47 K, 619 kPa, Liquid	0.095
242.5 K, 10391 kPa, Liquid	0.09913
242.5 K, 15372 kPa, Liquid	0.1012
242.5 K, 20712 kPa, Liquid	0.1034
242.56 K, 5308 kPa, Liquid	0.09697
242.62 K, 642 kPa, Liquid	0.09474
242.85 K, 10385 kPa, Liquid	0.09922
242.85 K, 20701 kPa, Liquid	0.1032
242.86 K, 15376 kPa, Liquid	0.1011
242.92 K, 5304 kPa, Liquid	0.09701
243 K, 622 kPa, Liquid	0.09406
243.02 K, 15383 kPa, Liquid	0.1009
243.02 K, 20695 kPa, Liquid	0.1029
243.04 K, 10395 kPa, Liquid	0.09886
243.1 K, 5316 kPa, Liquid	0.09673
243.17 K, 615 kPa, Liquid	0.09437
243.39 K, 20699 kPa, Liquid	0.1032
243.4 K, 15385 kPa, Liquid	0.1011
243.42 K, 10393 kPa, Liquid	0.09892
243.49 K, 5327 kPa, Liquid	0.09667
243.57 K, 643 kPa, Liquid	0.09442
243.59 K, 20693 kPa, Liquid	0.1027
243.6 K, 15397 kPa, Liquid	0.1006
243.63 K, 10402 kPa, Liquid	0.09852
243.71 K, 5317 kPa, Liquid	0.09606
243.79 K, 649 kPa, Liquid	0.09402
251.51 K, 42 kPa, Gas	0.01026
251.52 K, 63 kPa, Gas	0.01037
251.54 K, 86 kPa, Gas	0.01039
251.74 K, 41 kPa, Gas	0.01015
251.76 K, 63 kPa, Gas	0.01019
251.77 K, 86 kPa, Gas	0.01024
251.78 K, 87 kPa, Gas	0.01029
251.97 K, 87 kPa, Gas	0.01006
252 K, 41 kPa, Gas	0.01005
252 K, 62 kPa, Gas	0.01009
252 K, 88 kPa, Gas	0.01003
252.01 K, 86 kPa, Gas	0.01018
252.02 K, 63 kPa, Gas	0.01
252.03 K, 87 kPa, Gas	0.01018
252.31 K, 87 kPa, Gas	0.01004
252.33 K, 88 kPa, Gas	0.01011
252.36 K, 63 kPa, Gas	0.01014
252.65 K, 86 kPa, Gas	0.01016
252.67 K, 87 kPa, Gas	0.01008
252.73 K, 63 kPa, Gas	0.01019
253.03 K, 86 kPa, Gas	0.01015
253.07 K, 87 kPa, Gas	0.01011
253.13 K, 63 kPa, Gas	0.01017
253.46 K, 86 kPa, Gas	0.01017
253.48 K, 87 kPa, Gas	0.01016
253.56 K, 62 kPa, Gas	0.01022
261.25 K, 97 kPa, Gas	0.0104
261.43 K, 21238 kPa, Liquid	0.09804
261.44 K, 15456 kPa, Liquid	0.09523
261.45 K, 97 kPa, Gas	0.01036
261.47 K, 10413 kPa, Liquid	0.09305
261.48 K, 489 kPa, Liquid	0.08806
261.5 K, 80 kPa, Gas	0.01109
261.5 K, 5306 kPa, Liquid	0.09055
261.51 K, 21243 kPa, Liquid	0.09768
261.52 K, 15449 kPa, Liquid	0.09503
261.55 K, 97 kPa, Gas	0.01112
261.55 K, 10410 kPa, Liquid	0.09274
261.56 K, 107 kPa, Gas	0.0112
261.56 K, 489 kPa, Liquid	0.0878
261.57 K, 122 kPa, Gas	0.01124
261.58 K, 5302 kPa, Liquid	0.09026
261.64 K, 98 kPa, Gas	0.01034
261.73 K, 80 kPa, Gas	0.01096
261.77 K, 97 kPa, Gas	0.01098
261.78 K, 105 kPa, Gas	0.01104
261.79 K, 120 kPa, Gas	0.01105
261.83 K, 21233 kPa, Liquid	0.09783
261.85 K, 15453 kPa, Liquid	0.09507
261.86 K, 98 kPa, Gas	0.01037
261.88 K, 10404 kPa, Liquid	0.09272
261.91 K, 489 kPa, Liquid	0.08776
261.93 K, 5298 kPa, Liquid	0.09023
261.93 K, 21227 kPa, Liquid	0.09748
261.96 K, 80 kPa, Gas	0.01086
261.96 K, 128 kPa, Gas	0.01078
261.96 K, 15453 kPa, Liquid	0.09468
261.97 K, 82 kPa, Gas	0.01083
261.97 K, 112 kPa, Gas	0.01074
261.98 K, 99 kPa, Gas	0.01077
262 K, 98 kPa, Gas	0.01084
262 K, 10412 kPa, Liquid	0.0925
262.01 K, 97 kPa, Gas	0.0109
262.02 K, 103 kPa, Gas	0.01092
262.03 K, 118 kPa, Gas	0.01094
262.03 K, 488 kPa, Liquid	0.08756
262.04 K, 5301 kPa, Liquid	0.08998
262.09 K, 98 kPa, Gas	0.01037
262.29 K, 109 kPa, Gas	0.01076
262.29 K, 21229 kPa, Liquid	0.09748
262.3 K, 81 kPa, Gas	0.01082
262.3 K, 98 kPa, Gas	0.01082

Liquid
Settings	thermal conductivity [W/m/K]
243.15 K	0.09448
253.15 K	0.09063
